# According to ChEMBL document CHEMBL5126536, “Small molecules targeting γ-secretase and their potential biological applications” (Eur J Med Chem, 2022):
# Experiments:
# [1] = Oral bioavailability in rat; format: ADME, organism-based; conditions: in vivo
# [2] = Modulation of gamma-secretase in human H4 cells expressing APPswe mutant assessed as reduction in amyloid beta 42 by ELISA; format: cell-based
# [3] = Half life in rat; format: ADME; conditions: in vivo
# [4] = Inhibition of Notch in human H4 cells; format: cell-based
# Gamma-secretase [5] = experiment: Inhibition of gamma-secretase in human H4 cells assessed as reduction in amyloid beta 42; format: cell-based
# Mus musculus [6] = experiment: Antialzheimer activity in Tg2576 mouse model assessed as decrease in amyloid beta 42 level at 10 mg/kg measured on day 8; format: functional; set-up: scale not given: the % may be the effect or the level left; conditions: time 8 day
# Mus musculus [7] = experiment: Antialzheimer activity in Tg2576 mouse model assessed as decrease in amyloid beta 40 level at 10 mg/kg measured on day 8; format: functional; set-up: scale not given: the % may be the effect or the level left; conditions: time 8 day
# [8] = Ratio of drug concentration in Tg2576 mouse brain to plasma at 1 to 30 mg/kg, po; format: ADME, organism-based; conditions: dose 1-30 mg/kg, read-out: BPR
# Gamma-secretase [9] = experiment: Inhibition of gamma-secretase (unknown origin) assessed as inhibition of Amyloid beta 42 production by cell-free assay; format: protein-complex assay, Homo sapiens
# [10] = Toxicity in Sprague-Dawley rat assessed as maximum tolerated dose administered orally upto 28 days consecutively; conditions: in vivo, route po, time < 28 day
# Homo sapiens = species: Homo sapiens; experiment: Selectivity ratio, ratio of IC50 for gamma-secretase (unknown origin) to IC50for Notch (unknown origin)
# [11] = Metabolic stability in human liver microsomes assessed as half life; format: ADME, Microsome
# Gamma-secretase [12] = experiment: Inhibition of gamma-secretase (unknown origin) assessed as inhibition of Amyloid beta 40 production by cell-free assay; format: protein-complex assay, Homo sapiens
# [13] = Inhibition of Notch cleavage in transgenic HEK293 cells; format: cell-based; conditions: Homo sapiens
# [14] = Inhibition of amyloid beta (unknown origin) production; set-up: species or system Homo sapiens
# [15] = biological target: Amyloid-beta precursor protein (Homo sapiens, UniProt P05067); experiment: Modulation of amyloid beta 42 in human H4 cells expressing APP751 incubated overnight by ELISA; format: cell-based
# [16] = Inhibition of Notch (unknown origin) by cell-based assay; conditions: Homo sapiens
# Mus musculus [17] = experiment: Modulation of gamma secretase in hippocampus of C57BL mouse assessed as reduction in amyloid beta 42 at 3 mg/kg, po measured for 0.5 to 18 hrs by ELISA relative to control; format: organism-based; set-up: scale not given: the % may be the effect or the level left; conditions: time 0.5-18 hrs
# Mus musculus [18] = experiment: Modulation of gamma secretase in hippocampus of C57BL mouse assessed as reduction in amyloid beta 42 at 10 mg/kg, po measured for 0.5 to 18 hrs by ELISA relative to control; format: organism-based; conditions: filed as modulator, time 0.5-18 hrs
# Amyloid-beta precursor protein, sequence (P05067 whole entry): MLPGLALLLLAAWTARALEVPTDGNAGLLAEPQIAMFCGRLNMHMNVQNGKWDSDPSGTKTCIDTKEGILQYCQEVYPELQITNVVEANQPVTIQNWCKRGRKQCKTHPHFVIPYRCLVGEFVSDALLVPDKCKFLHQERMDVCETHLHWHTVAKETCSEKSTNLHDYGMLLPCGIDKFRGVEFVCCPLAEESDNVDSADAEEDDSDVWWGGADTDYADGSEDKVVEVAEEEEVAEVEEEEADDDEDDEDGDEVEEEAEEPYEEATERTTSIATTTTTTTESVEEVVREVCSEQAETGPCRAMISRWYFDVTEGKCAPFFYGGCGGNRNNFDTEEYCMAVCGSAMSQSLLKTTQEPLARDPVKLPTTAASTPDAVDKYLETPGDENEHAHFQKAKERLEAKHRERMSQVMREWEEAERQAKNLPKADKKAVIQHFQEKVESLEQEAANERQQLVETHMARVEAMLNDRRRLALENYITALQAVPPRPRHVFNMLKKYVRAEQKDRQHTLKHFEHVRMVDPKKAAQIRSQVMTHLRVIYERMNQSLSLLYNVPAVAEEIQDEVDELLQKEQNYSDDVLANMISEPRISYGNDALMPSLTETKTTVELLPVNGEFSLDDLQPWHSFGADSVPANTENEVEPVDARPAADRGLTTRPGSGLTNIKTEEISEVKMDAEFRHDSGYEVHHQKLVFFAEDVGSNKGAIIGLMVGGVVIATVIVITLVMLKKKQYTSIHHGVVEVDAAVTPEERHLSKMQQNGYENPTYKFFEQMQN
structure (smiles),measurement,setting,value
O=C(O)C1(c2ccc(-c3ccc(Cl)c(Cl)c3)c(F)c2)CC1,bioavailability,[1],50%
same,IC50,[2],3600 nM
same,half-life,[3],20 h
CC(C)[C@H](O)C(=O)N[C@@H](C)C(=O)N[C@@H]1C(=O)N(C)CCc2ccccc21,IC50,[4],14.1 nM
same,IC50,Gamma-secretase [5],10.9 nM
same,Activity,Mus musculus [6],22%
same,Activity,Mus musculus [7],22%
O=S(=O)(N[C@H](CO)C(C(F)(F)F)C(F)(F)F)c1ccc(Cl)s1 [BEGACESTAT],Kp,[8],> 1
same,EC50,Gamma-secretase [9],12.4 nM
same,MTD at 672 h,[10],2000 mg/kg/day
same,Ratio IC50,Homo sapiens,16.8
same,half-life,[11],1.5 h
same,EC50,Gamma-secretase [12],14.8 nM
C[C@H](NC(=O)[C@@H](O)c1cc(F)cc(F)c1)C(=O)N[C@@H]1C(=O)N(C)c2ccccc2-c2ccccc21,IC50,[13],0.39 nM
same,IC50,[14],0.082 nM
COc1nc(C2=NOC[C@H](c3cc4ccccc4o3)N2)ccc1-n1cnc(C)c1,EC50,[15],35 nM
C[C@H](NC(=O)CCC(F)(F)F)C(=O)N[C@@H]1C(=O)N(CCO)c2ncccc2-c2ccccc21,IC50,[16],0.41 nM
COc1cc(-c2nnc3n2CCC[C@]3(Oc2cc(F)c(F)c(F)c2)C(C)(C)O)ccc1-c1cnc(C)o1,Activity,Mus musculus [17],23.2%
same,inhibition,Mus musculus [18],46.5%
